What all share (type): biochemical
Experiment [1] deals with human acidic fibroblast growth factor (FGF-1) (Homo sapiens, UniProt P05230). Nature of the experiment: FGF-1 thermal aggregation (turbidity at 360 nm). The conditions noted are these: FGF-1 50 μg/mL, 50° C., standard deviation in parenthesis. The essentials: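 Additive effects on thermal aggregation were read from the steepest slope of OD360-versus-time curves recorded over 1 h and referenced to additive-free protein. FGF-1 (50 μg/mL, phosphate/NaCl pH 7.2) was stressed at 50° C; citrate synthase (96 μg/mL, HEPES/KCl pH 7.8) at 45° C.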

The target of another experiment is T1, bovine alpha-lactalbumin (Bos taurus, UniProt P00711).
T1 construct: purchased Sigma
T1 sequence (P00711 20-142): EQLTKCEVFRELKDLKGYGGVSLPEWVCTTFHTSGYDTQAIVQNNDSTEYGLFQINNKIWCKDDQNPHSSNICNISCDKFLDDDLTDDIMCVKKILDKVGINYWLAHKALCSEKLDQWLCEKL
Put plainly: Alpha-lactalbumin aggregation (turbidity at 360 nm) induced by DTT. The note with it: α Lactalbumin 0.4 mg/mL, 37° C., DTT; compound 1,000×; standard deviation in parenthesis. The method in brief:
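Turbidity at 360 nm was recorded for 1 hour at 37° C. in 1 cm cuvettes in a thermostatted seven-position holder cycled every 30 seconds, or in a 96-well microtiter plate reader. After stirring, alpha-lactalbumin (0.4 mg/mL) was added, then DTT. OD360nm versus time data were analyzed in Excel relative to compound-free controls.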

Experiment [2] has as its target T2, chicken egg white lysozyme (Gallus gallus, UniProt P00698).
T2 construct: chicken egg white lysozyme [Sigma]; purchased Sigma; host or cells: egg white
Nature of the experiment: Lysozyme aggregation (turbidity at 360 nm) induced by DTT. The note with it: Lysozyme 0.4 mg/mL, 25° C., DTT; compound 1,000×; standard deviation in parenthesis. The essentials:
(§1)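 pST 1.27 mg/mL, 60° C, PEG 8000 20 mg/mL; lysozyme 0.4 mg/mL, 25° C, DTT 1.27E-4 M; HLF 0.4 mg/mL, 43° C, DTT 1.27E-4 M; ADH 1 mg/mL, PBS pH 7.0, 37° C, Cu(OP)2 7.76E-5 M. Turbidity at 360 nm over 1 h, vs no-compound control.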

Experiment [3] has as its target T3, porcine somatotropin (pST) (Sus scrofa, UniProt P01248).
T3 construct: purchased Pfizer, Inc., Groton, Conn., USA (provided, not bought)
T3 sequence (P01248 27-216): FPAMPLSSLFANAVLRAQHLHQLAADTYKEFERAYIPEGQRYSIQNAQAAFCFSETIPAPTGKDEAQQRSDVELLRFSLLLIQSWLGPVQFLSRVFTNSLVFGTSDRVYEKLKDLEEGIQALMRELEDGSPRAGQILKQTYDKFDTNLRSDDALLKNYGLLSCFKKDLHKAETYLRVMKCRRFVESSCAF
Nature of the experiment: Porcine somatotropin aggregation (turbidity at 360 nm) with PEG 8000. The conditions noted are these: pST 1.27 mg/mL, 60° C., standard deviation in parenthesis. The essentials:
as §1

human acidic fibroblast growth factor (FGF-1), sequence (P05230 whole entry): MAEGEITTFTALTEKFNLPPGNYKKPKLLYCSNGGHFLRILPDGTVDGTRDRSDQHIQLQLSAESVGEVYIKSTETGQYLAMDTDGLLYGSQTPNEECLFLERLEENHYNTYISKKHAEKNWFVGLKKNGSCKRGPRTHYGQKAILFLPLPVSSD
T2 sequence (P00698 19-147): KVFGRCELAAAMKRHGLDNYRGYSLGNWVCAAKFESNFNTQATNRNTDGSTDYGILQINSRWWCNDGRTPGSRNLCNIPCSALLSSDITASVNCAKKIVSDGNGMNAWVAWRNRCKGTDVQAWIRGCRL

Regarding Lys-Lys, the inhibition index is 1.1 (0.1) in experiment [1] (compound 1,000×); 3.1 (0.8) in experiment [1] (compound 10,000×); 1.0 (0.1) at bovine alpha-lactalbumin; 1.3 (0.1) in experiment [2]; 0.9 (0.1) in experiment [3] (compound 100X).

Take diglycine: the inhibition index in experiment [1] (compound 1,000×) is recorded as 1.0 (0.1); in experiment [1] (compound 10,000×) it was 1.2 (0.4); on bovine alpha-lactalbumin, 1.0 (0.0); in experiment [2], 0.9 (0.0); in experiment [3] (compound 100X), 1.9 (0.3).

As for tetraglycine, the inhibition index in experiment [1] (compound 1,000×) was 3.8 (0.8); at bovine alpha-lactalbumin, 1.3 (0.4); in experiment [2], 2.1 (0.5); in experiment [3] (compound 100X) it was 0.8 (0.1); in experiment [3] (compound 2,000X), 3.4 (0.6).
